From PMC3323581, “Membrane Association of the PTEN Tumor Suppressor: Molecular Details of the Protein-Membrane Complex from SPR Binding Studies and Neutron Reflection” (PLoS ONE, 2012) come the findings set out here.

Read-outs that look alike come from different tables or passages of the source.

Experiment in all cases: SPR equilibrium binding to sparsely-tethered bilayer (stBLM)
In experiment [1] the target is T1, wt PTEN (Homo sapiens, UniProt P60484).
T1 construct: full-length, six-histidine tag at the C-terminus, expressed in Escherichia coli BL21 (DE3)
Particulars: for Kd: read-out: Kd (μM) / Component a. An excerpt: (§1) SPR equilibrium binding to sparsely-tethered bilayer (stBLM) on wt PTEN

Experiment [2] has as its target T2, wt PTEN (Homo sapiens, UniProt P60484, C124S).
T2 construct: full-length, six-histidine tag at the C-terminus, expressed in Escherichia coli BL21 (DE3)
Excerpt: as §1

In another experiment the target is T3, truncated PTEN (Homo sapiens, UniProt P60484, DEL286-309).
T3 construct: crystallization construct: residues 1-6, loop 286-309 and C-terminal tail 354-403 deleted; plasmid from N. R. Leslie; expressed in E. coli, His-tag purified
Particulars: DOPC:PI(4,5)P2 97.8:2.2 bilayer, pH 7.0, room temperature. An excerpt: SPR equilibrium binding to sparsely-tethered bilayer (stBLM) on truncated PTEN

Experiment [3] has as its target T4, wt PTEN (Homo sapiens, UniProt P60484, H93R).
T4 construct: full-length, six-histidine tag at the C-terminus, expressed in Escherichia coli BL21 (DE3)
Particulars: DOPC:PI(4,5)P2 97.8:2.2 bilayer, pH 7.0, room temperature.
Excerpt: as §1

Consider `CCCCCCCCCCCCCCCC(=O)OC[C@H](COP(=O)(O)O[C@@H]1[C@H](O)[C@H](O)[C@@H](OP(=O)(O)O)[C@H](OP(=O)(O)O)[C@H]1O)OC(=O)CCCCCCCCCCCCCCC` [DPPI(4,5)P2], for which the Kd at wt PTEN [1] is 1.9 ± 0.3 µM.
In the case of `CCCCCCCCCCCCCCCC(=O)OC[C@H](COP(=O)(O)O[C@H]1[C@H](O)[C@@H](OP(=O)(O)O)[C@H](OP(=O)(O)O)[C@@H](OP(=O)(O)O)[C@H]1O)OC(=O)CCCCCCCCCCCCCCC` [PI(3,4,5)P3], the “Kd (μM) / Component a” value on wt PTEN [1] (DOPC:PI(3,4,5)P3 97.9:2.1 bilayer, pH 7.0, room temperature, unreliable (active enzyme likely converts the lipid during the measurement)) was 2.4 ± 0.2 µM. Also, the Kd at wt PTEN [2] was 120 ± 30 nM.
With PI(4,5)P2, the Kd at truncated PTEN was found to be 770 ± 70 nM; on wt PTEN [3], 1300 ± 200 nM; at wt PTEN [1] (DOPC:PI(4,5)P2 97.8:2.2 bilayer (same Kd at 0.7 and 3.7 mol%), 100 mM NaCl, 10 mM HEPES, 1 mM EDTA, pH 7.0, room temperature, Kd as protein concentration at half saturation) it was 0.4 ± 0.1 µM; at wt PTEN [2] (DOPC:PI(4,5)P2 97.8:2.2 bilayer, pH 7.0, room temperature) it was 320 ± 30 nM.
